Measurements reported in patent US20060252708A1, “Compositions of flavones and long chain fatty acid derivatives isolated from plants and methods related thereto for the control of prostate disorders” (priority 2005, published 2006).

Assays:
Assay type in all cases: cell-based
[1] = biological target: T1, androgen receptor (AR) (Homo sapiens, UniProt P10275); test: Androgen receptor activation, luciferase reporter gene system in U2OS cells; conditions: 10 nM andrusol, 24 hr incubation, FIG. 1 and FIG. 4
T1 construct: The full length AR cDNA was cloned from human's adipose tissue using PCR; expressed in transfected cells; host or cells: U2OS cells
T1 sequence (P10275 1-920): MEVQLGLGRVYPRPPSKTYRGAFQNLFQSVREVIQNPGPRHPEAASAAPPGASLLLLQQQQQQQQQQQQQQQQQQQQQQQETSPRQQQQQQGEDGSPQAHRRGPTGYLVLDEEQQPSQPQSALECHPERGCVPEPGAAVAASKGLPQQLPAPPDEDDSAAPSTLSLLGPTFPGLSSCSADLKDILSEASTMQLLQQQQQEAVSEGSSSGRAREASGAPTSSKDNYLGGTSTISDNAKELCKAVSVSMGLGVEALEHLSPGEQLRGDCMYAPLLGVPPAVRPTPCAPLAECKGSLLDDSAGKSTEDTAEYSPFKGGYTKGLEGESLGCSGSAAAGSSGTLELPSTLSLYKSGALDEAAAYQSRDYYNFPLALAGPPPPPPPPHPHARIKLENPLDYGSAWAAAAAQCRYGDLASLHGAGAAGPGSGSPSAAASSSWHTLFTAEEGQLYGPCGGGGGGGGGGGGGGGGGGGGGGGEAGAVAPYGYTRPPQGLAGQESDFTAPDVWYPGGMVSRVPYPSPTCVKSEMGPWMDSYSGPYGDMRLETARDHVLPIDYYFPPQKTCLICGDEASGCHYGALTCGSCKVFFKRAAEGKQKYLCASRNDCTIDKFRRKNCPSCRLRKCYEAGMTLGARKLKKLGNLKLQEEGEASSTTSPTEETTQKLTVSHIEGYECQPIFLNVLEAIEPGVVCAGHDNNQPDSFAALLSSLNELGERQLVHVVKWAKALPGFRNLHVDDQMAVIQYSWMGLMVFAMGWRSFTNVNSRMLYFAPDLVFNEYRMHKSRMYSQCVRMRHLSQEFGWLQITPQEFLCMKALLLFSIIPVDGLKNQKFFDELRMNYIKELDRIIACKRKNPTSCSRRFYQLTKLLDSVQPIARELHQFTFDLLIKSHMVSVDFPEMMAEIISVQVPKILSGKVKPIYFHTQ
Protocol: The activation of AR was performed using a luciferase reporting gene system. The full length AR cDNA was cloned from human's adipose tissue using PCR. The primer sequence 1 used was 5′-[…]-3′ (SEQ ID NO:1); the primer sequence 2 used was 5′-[…]-3′ (SEQ ID NO:2). The amplified PCR products were inserted into an expression vector, and then sequenced. The reporter genes were constructed using luciferase detected carrier pGL3-Promoter manufactured by Promega Ltd. Three copies of AR response element were inserted into upstream of pGL3-promoter (element sequence 3 used was 5′-[…] -3′) (SEQ ID NO:3). The co-transfection experiments were conducted in 96-well plates using U2OS cells. 24 hours after transfection, 10 nM andrusol, DMSO (0.1%), and testing compounds were added into cell culture for further 24 hr incubation.

[2] = system: secreting PSA from LNCaP cells; test: ELISA of PSA secreted from LNCaP cells (inhibition of PSA secretion); conditions: for Rate of inhibition (%): Table 2, PSA secretion; for inhibition at 1 µg/mL: concentration 1 ug/ml; for inhibition at 3 µg/mL: concentration 3 ug/ml; for inhibition at 6.25 µg/mL: concentration 6.25 ug/ml
Protocol: For example, in cultured androgen-dependent prostate cancer cells as shown in An enzyme-linked immunoadsorbent assay was adopted to determine the level of secreting PSA from LNCaP cells, an androgen-dependent prostate epithelia cancer cells, by the above-mentioned flavones. At first, 100 μl polyclonal Ab at 4 μg/m was added to coat the microplate. They were placed for 12 hours at 4° C., and then washed by PBST and sealed the plate with PBST for 1 hour at 37° C. Supernatants from flavones or mock-treated cells were added into the plate to incubate at water bathed for 2 hours at 37° C. After washing, primary Ab at 200 ng/ml was added and incubated for 1 hour at 37° C. After washing, secondary Ab at 1:8000 was then added and incubated for 1 hour at room temperature. After washing, color reaction substrate was added and incubated for 10 min at dark, then added 2 N sulfuric acid to measure absorption at 492 nm.

[3] = biological target: T2, estrogen receptor-β (ERβ) (Homo sapiens, UniProt Q92731); test: Estrogen receptor-β activation, luciferase reporter gene system in U2OS cells; conditions: 10 nM estradiol, 24 hr incubation, FIG. 3
T2 construct: The full length ER-α and ER-β cDNA were separately cloned from human adipose tissue using PCR method; expressed in transfected cells; host or cells: U2OS cells
T2 sequence (Q92731 whole entry): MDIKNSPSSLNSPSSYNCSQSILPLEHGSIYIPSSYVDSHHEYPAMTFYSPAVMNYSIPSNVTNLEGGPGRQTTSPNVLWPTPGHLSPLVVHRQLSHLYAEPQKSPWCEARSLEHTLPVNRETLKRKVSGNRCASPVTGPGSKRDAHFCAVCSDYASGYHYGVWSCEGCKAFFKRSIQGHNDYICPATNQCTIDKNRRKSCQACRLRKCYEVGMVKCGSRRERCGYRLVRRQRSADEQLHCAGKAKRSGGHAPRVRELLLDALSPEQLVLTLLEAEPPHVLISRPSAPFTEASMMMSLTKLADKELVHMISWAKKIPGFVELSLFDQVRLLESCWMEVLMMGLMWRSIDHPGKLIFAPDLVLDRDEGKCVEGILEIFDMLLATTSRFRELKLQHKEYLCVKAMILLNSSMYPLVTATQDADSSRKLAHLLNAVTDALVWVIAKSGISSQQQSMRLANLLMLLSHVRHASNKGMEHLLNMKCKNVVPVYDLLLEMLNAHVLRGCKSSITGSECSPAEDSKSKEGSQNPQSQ
Protocol: (§1) The activation evaluation of the ERs were performed using a luciferase reporter gene system. The full length ER-α and ER-β cDNA were separately cloned from human adipose tissue using PCR method. The primer sequence 4 (ERα) used was 5′-[…]-3′ (SEQ ID NO:4); the primer sequence 5 (ERα) used was 5′-[…]-3′(SEQ ID NO:5); the primer sequence 6 (ERβ) used was 5′-[…]-3′ (SEQ ID NO:6); the primer sequence 7 (ERβ) used was 5′-[…]-3′(SEQ ID NO:7). The amplified PCR products were inserted into expression vector and confirmed by sequencing. The report genes were constructed by using luciferase detected carrier pGL3-Promoter from Promega Ltd. Three copies of ER response element were inserted into the upstream of pGL3-Promoter (sequence 8 used was 5′-[…] -3′ (SEQ ID NO:8)). The co-transfection experiments were conducted in 96-well plates using U2OS cells. 24 hours after transfection, 10 nM estradiol, DMSO (0.1%), and testing compounds were added into cell culture for further 24 hr incubation.

[4] = biological target: T3, estrogen receptor-α (ERα) (Homo sapiens, UniProt P03372); test: Estrogen receptor-α activation, luciferase reporter gene system in U2OS cells; conditions: 10 nM estradiol, 24 hr incubation, FIG. 2
T3 construct: The full length ER-α and ER-β cDNA were separately cloned from human adipose tissue using PCR method; expressed in transfected cells; host or cells: U2OS cells
T3 sequence (P03372 1-595): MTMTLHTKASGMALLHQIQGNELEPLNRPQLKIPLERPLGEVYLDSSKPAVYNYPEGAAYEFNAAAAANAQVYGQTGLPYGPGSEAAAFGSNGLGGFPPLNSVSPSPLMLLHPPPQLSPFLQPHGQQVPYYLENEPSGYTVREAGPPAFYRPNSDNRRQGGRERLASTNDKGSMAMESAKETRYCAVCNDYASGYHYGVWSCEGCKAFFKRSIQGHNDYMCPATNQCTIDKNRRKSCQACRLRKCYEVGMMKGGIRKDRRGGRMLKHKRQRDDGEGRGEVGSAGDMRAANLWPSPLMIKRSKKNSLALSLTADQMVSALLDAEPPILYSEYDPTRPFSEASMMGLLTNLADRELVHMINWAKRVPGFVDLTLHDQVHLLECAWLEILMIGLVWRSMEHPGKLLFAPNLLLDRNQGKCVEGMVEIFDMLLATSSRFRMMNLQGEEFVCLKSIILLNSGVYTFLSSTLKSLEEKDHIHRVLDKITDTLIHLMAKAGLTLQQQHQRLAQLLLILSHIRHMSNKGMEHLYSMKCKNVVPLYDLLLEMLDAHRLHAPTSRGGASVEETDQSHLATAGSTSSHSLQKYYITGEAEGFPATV
Protocol: as §1

[5] = Homo sapiens, PSA secretion, read-out: Rate of inhibition (%)
[6] = Homo sapiens, PSA secretion, concentration 12.5 ug/ml, read-out: Rate of inhibition (%)
[7] = Homo sapiens, PSA secretion, concentration 25 ug/ml, read-out: Rate of inhibition (%)
[8] = Homo sapiens, PSA secretion, concentration 50 ug/ml, read-out: Rate of inhibition (%)

Compound	Inhibition of androgen receptor (AR) activation [1]	Rate of inhibition (%) ([2]; concentration 5 ug/ml)	Rate of inhibition (%) ([2]; concentration 12.5 ug/ml)	Rate of inhibition (%) ([2]; concentration 25 ug/ml)	Rate of inhibition (%) ([2]; concentration 50 ug/ml)	inhibition at 1 µg/mL [2, 5]	inhibition at 3 µg/mL [2, 5]	inhibition at 6.25 µg/mL [2, 5]	inhibition at 12.5 µg/mL [2, 6]	inhibition at 25 µg/mL [2, 7]	inhibition at 50 µg/mL [2, 8]	Effect on estrogen receptor-β (ERβ) activation [3]	Effect on estrogen receptor-α (ERα) activation [4]	other results
CCC=CCC=CCC=CCCCCCCCC(=O)NCCO [Long chain amide, N-(2-ethoxyl)-9,12,15-linolenamide]	Inhibition of androgen receptor (AR) activation	9.7%	31%	63%	71%									Rate of inhibition (%) ([2]; concentration 20 ug/ml): 52%
CCC=CCC=CCC=CCCCCCCCC(=O)OC[C@@]1(O)O[C@H](CO)[C@@H](O)[C@@H]1O [Octadecatrienoic acid fructoside, 9,12,15-octadecatrienoic acid 1-O-β-D-fructoside]	Inhibition of androgen receptor (AR) activation	23%	57%	76%										Rate of inhibition (%) ([2]; concentration 10 ug/ml): 40%
O=c1c(O)c(-c2ccc(O)cc2)oc2cc(O)cc(O)c12 [kaempferol]						53%	60%	69%	65%	66%	89%			
O=c1cc(-c2ccc(O)c(O)c2)oc2cc(O)cc(O)c12 [luteolin]	Inhibition of androgen receptor (AR) activation					37%	48%					Inhibition	Inhibition	inhibition at 10 µg/mL ([2]; Homo sapiens, PSA secretion, concentration 10 ug/ml, read-out: Rate of inhibition (%)): 57%; inhibition at 20 µg/mL ([2]; Homo sapiens, PSA secretion, concentration 20 ug/ml, read-out: Rate of inhibition (%)): 67%; inhibition at 40 µg/mL ([2]; Homo sapiens, PSA secretion, concentration 40 ug/ml, read-out: Rate of inhibition (%)): 100%
O=C1C[C@@H](c2ccc(O)cc2)Oc2cc(O)cc(O)c21 [naringenin]	Inhibition of androgen receptor (AR) activation							78%	84%	87%	88%	Inhibition	Inhibition	
hexadecanoic 1-O-β-D-fructoside [Hexadecanoic fructoside]	Inhibition of androgen receptor (AR) activation	4.5%	8.4%	26%	42%									Rate of inhibition (%) ([2]; concentration 100 ug/ml): 76%
